Tested on: HSPCs co-cultured with BMECs
Test: BMEC co-culture system: cell-type specific differentiation readout in response to small molecules
Format: cell-based, murine
Conditions: Cd11b+Gr1+, Lin neg, GMP, MEP and LSK cells after contacting the cells with the agent, FIGS. 4A-4C
Text: FIGS. 4A-4C. BMEC co-culture system can be used to readout cell-type specific dependencies in response to small molecules and single guide RNAs (sgRNAs).
A platform was adopted whereby primary murine HSPCs are co-cultured with bone marrow endothelial cells that allow for maintenance and expansion of HSPCs (FIG. 1). […] Thus, the adopted HSPC-BMEC co-culture platform is a robust system to study genetically defined murine HSPCs with CH genomic modifications.

For `Cc1nc(Nc2ncc(C(=O)Nc3c(C)cccc3Cl)s2)cc(N2CCN(CCO)CC2)n1` [Dasatanib], the “effect on differentiation (percentage of heme-expression and cell differentiation)” value was “inhibits differentiation”.

— patent US20240418704A1, “EPIGENETIC TARGETS IN CLONAL HEMATOPOIESIS” (Memorial Sloan-Kettering Cancer Center, priority 2021, published 2024)
